Reference: ChEMBL document CHEMBL5465560, “Selectivity Literature for EUbOPEN Chemogenomic Library” (2024)

Assays:
[1] = target: T1, Serine/threonine-protein kinase Sgk1 (Homo sapiens) (UniProt O00141); assay: Selectivity interaction (KinomeScan (DiscoverX)) EUB0000607a SGK1; conditions: at 10 µM
T1 sequence (whole entry): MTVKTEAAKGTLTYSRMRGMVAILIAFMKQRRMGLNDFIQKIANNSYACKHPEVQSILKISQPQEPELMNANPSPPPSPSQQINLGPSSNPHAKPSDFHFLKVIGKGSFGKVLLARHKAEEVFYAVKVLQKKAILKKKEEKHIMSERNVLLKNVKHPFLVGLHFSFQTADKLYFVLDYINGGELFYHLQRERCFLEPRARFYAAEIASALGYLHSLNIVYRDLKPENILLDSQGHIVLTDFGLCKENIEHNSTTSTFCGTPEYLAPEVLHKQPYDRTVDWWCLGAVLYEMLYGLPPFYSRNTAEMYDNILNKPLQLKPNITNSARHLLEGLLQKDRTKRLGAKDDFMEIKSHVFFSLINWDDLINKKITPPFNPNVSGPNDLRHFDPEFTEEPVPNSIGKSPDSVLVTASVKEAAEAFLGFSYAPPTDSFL

[2] = target: Cyclin-dependent kinase 14 (Homo sapiens) (UniProt O94921); assay: Selectivity interaction (ActivX KiNativ screen (kinase selectivity in THP-1 cell lysates)) EUB0000639a CDK14; format: subcellular; conditions: lysate, at 0.04 µM
[3] = target: TGF-beta receptor type-2 (Homo sapiens) (UniProt P37173); assay: Selectivity interaction (KinomeScan (DiscoverX)) EUB0000695a TGFBR2; conditions: at 100 nM
[4] = target: NT-3 growth factor receptor (Homo sapiens, UniProt Q16288); assay: Selectivity interaction (KinomeScan (DiscoverX)) EUB0000655a NTRK3; conditions: at 10 µM
[5] = target: T2, Receptor-interacting serine/threonine-protein kinase 1 (Homo sapiens) (UniProt Q13546); assay: Selectivity interaction (KinomeScan (DiscoverX)) EUB0000045b RIPK1
T2 sequence (whole entry): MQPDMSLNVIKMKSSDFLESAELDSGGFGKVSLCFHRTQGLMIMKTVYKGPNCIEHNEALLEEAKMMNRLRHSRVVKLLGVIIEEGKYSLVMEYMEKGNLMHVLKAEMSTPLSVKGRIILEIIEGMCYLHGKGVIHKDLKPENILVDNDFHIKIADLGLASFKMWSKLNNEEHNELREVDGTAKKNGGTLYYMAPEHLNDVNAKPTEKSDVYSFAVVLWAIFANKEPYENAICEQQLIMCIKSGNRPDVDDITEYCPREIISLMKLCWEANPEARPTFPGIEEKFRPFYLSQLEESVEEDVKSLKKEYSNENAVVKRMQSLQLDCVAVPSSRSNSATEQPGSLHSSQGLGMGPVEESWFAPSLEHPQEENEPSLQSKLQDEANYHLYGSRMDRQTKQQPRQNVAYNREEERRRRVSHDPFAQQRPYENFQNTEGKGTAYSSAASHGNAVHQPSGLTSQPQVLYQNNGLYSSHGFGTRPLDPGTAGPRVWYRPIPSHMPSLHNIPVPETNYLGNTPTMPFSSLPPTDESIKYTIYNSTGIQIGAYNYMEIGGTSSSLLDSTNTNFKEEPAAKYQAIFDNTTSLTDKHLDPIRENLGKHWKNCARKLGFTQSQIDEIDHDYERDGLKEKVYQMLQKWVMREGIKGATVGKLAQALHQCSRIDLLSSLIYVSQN

[6] = target: T3, Serine/threonine-protein kinase 17B (Homo sapiens) (UniProt O94768); assay: Selectivity interaction (KinomeScan (DiscoverX)) EUB0000618a STK17B; conditions: at 10 µM
T3 sequence (whole entry): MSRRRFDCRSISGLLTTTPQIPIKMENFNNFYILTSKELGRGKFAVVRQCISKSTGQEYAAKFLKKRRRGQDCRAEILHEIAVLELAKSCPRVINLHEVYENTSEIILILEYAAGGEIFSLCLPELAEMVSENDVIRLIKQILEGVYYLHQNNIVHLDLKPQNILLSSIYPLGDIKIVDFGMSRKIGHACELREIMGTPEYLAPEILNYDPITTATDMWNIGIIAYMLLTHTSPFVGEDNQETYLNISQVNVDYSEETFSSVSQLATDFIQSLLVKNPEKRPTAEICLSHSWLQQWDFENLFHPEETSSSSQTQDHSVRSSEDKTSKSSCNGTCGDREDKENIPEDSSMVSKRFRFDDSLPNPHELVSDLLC

Sequence of TGF-beta receptor type-2 (Homo sapiens) (P37173 whole entry): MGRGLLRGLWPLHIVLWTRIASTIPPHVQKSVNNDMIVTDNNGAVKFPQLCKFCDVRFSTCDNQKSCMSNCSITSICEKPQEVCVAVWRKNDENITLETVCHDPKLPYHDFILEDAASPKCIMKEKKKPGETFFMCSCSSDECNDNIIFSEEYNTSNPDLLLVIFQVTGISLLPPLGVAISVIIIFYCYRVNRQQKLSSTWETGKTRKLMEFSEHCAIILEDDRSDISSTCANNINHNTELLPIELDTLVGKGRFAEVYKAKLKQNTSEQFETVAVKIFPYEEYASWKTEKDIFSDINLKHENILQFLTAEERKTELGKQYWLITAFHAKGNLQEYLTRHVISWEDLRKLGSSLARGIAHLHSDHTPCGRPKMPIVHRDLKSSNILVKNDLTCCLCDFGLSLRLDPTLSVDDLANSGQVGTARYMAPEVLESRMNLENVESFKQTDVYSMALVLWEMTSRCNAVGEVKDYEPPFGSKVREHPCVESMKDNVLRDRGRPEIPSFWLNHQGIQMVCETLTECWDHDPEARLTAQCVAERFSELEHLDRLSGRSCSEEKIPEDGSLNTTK
Sequence of NT-3 growth factor receptor (Q16288 32-839 limits assumed): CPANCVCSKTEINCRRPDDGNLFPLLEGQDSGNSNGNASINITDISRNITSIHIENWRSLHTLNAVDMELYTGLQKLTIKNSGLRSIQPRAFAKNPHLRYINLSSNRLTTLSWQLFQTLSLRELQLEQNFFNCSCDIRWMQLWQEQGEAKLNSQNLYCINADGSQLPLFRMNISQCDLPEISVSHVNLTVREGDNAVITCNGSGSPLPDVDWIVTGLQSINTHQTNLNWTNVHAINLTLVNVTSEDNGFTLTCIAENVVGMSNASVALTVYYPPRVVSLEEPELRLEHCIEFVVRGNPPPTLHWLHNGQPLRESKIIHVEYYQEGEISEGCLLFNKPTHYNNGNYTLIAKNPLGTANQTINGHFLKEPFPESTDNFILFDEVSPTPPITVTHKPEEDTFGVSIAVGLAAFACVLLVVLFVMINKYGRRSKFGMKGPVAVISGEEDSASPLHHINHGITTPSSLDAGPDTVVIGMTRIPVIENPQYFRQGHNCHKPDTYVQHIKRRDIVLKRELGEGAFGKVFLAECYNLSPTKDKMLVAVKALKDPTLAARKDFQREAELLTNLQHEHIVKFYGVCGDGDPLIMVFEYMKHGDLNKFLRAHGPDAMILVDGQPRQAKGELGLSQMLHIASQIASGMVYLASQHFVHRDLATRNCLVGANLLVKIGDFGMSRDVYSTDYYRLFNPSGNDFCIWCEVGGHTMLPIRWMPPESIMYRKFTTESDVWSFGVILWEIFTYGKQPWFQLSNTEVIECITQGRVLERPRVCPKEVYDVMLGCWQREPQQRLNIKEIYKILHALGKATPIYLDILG
Sequence of Cyclin-dependent kinase 14 (Homo sapiens) (O94921 whole entry): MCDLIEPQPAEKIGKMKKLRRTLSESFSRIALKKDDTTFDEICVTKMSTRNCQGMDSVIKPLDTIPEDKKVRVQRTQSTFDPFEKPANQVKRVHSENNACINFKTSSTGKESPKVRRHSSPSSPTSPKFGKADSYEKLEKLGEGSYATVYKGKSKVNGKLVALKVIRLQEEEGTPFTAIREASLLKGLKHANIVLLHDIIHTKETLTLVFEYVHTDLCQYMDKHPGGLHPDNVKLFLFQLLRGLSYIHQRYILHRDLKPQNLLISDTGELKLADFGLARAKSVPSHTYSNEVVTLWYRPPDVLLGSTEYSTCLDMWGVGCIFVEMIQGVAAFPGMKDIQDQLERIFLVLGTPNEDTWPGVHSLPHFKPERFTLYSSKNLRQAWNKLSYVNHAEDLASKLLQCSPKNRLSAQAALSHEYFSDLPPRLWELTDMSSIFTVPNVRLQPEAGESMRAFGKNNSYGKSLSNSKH

`CNC(=O)Nc1ccc(-c2nc(N3CC4CCC(C3)O4)c3cnn(C4CCC5(CC4)OCCO5)c3n2)cc1` was tested, and the % of control [1] was 100%.

`CC[C@@H]1[C@H](F)C(=O)N[C@@H]1COc1nccc2cc(C(N)=O)c(OC)cc12` [ZIMLOVISERTIB] was tested, and the % of inhibition [2] was 5.5%.

`Cc1cc(F)c(C(=O)Nc2cccc(-c3nncn3C(C)C)n2)cc1-n1cnc(C2CC2)c1` gave a % of control [3] of 99%.

`CN(C)CCOc1ccc(-c2nc(-c3ccncc3)c(-c3ccc4c(c3)CC/C4=N\O)[nH]2)cc1` was tested, and the % of control [4] was 45%.

`C=CC(=O)Nc1cc(-n2c(=O)ccc3cnc4ccc(-c5ccc(NS(C)(=O)=O)cc5)cc4c32)ccc1C` showed a % of control ([5]; at 1 µM) of 87% and a % of control ([5]; at 10 µM) of 100%.

Compound `O[C@H]1CC[C@H](Nc2ncc3nc(Nc4c(F)cc(F)cc4F)n([C@H]4CCOC4)c3n2)CC1` has a % of control [6] of 70%.
